Laboratory results as given in publication PMC8741257, “Identification of novel non-toxic and anti-angiogenic α-fluorinated chalcones as potent colchicine binding site inhibitors” (Journal of Enzyme Inhibition and Medicinal Chemistry, 2022).

Key:
[1] = tested on: six human cancer cell lines (MCF-7, MGC-803, HepG2, Hela, A549, U937); assay: Antiproliferative activity, summary over the tested cancer cell lines; assay type: cell-based; conditions: tested cancer cell lines, read-out: IC50, anti-proliferative activity
Description: (§1) A549, MGC-803, MCF-7, HepG2 and Hela cells were seeded at the appropriate cell line density (3 × 10^3 to 4 × 10^3 cells/well). The cells were then incubated at 37 °C for 24 h in a humidified 5%CO2 in 96-well plates prior to experiments. After a further 72 h of incubation, cell proliferation was quantified with SRB ([…]) to determine the number of surviving cells. The absorbance at 560 nm was measured by microplate. The experiment was repeated three times, and the data were listed in the form of mean and standard deviation.
(§2) MGC-803 cells were collected and seeded into 96 well plates at a density of 8000/well. The mediums containing drugs and cell suspension were added into the well. The cells were incubated in 5% CO2 incubator at 37 °C for 72 h. Each well was added 10 µL CCK8 solution, and the incubation time was 3–4 h. The absorbance value at 450 nm was measured by microplate reader. Data are calculated with GraphPad Prism5 software.

[2] = tested on: MGC-803 (human gastric cancer cells); assay: Antiproliferative activity (SRB / CCK-8 assay); assay type: cell-based; conditions: mean ± SD, three separated experiments, 72 h
Description: (§3) MCF-7, MGC-803, Hela and HepG-2 cell lines were cultured in a base medium (90% DMEM and 10% FBS), A549 and U937 were cultured in a base medium (90% PRMI-1640 and 10% FBS) at 37 °C, 5% CO2 and a saturated humidity atmosphere. All the mediums were supplemented with 10% FBS and 1% […]/streptomycin (all cells were purchased from Shanghai Institutes for Biological Sciences, Chinese Academy of Sciences, Shanghai, China).
as §1, §2

[3] = tested on: U937 (human leukaemia cells); assay: Antiproliferative activity (CCK-8 assay); assay type: cell-based; conditions: U-937, mean ± SD, three separated experiments, 72 h
Description: as §3, §2

[4] = tested on: HepG2 (human liver cancer cells); assay: Antiproliferative activity (SRB assay); assay type: cell-based; conditions: mean ± SD, three separated experiments, 72 h
Description: as §3, §1

[5] = tested on: A549 (human non-small cell lung cancer); assay: Antiproliferative activity (SRB assay); assay type: cell-based; conditions: mean ± SD, three separated experiments, 72 h
Description: as §3, §1

[6] = tested on: MCF-7 (human breast cancer cells); assay: Antiproliferative activity (SRB assay); assay type: cell-based; conditions: MCF7, mean ± SD, three separated experiments, 72 h
Description: as §3, §1

[7] = tested on: Hela (human cervical cancer cells); assay: Antiproliferative activity (SRB assay); assay type: cell-based; conditions: mean ± SD, three separated experiments, 72 h
Description: as §3, §1

| SMILES | IC50 [1] [nM] | IC50 [2] [nM] | IC50 [3] [nM] | IC50 [4] [nM] | IC50 [5] [nM] | IC50 [6] [nM] | IC50 [7] [nM] | melting point [°C] |
| --- | --- | --- | --- | --- | --- | --- | --- | --- |
| COC(=O)c1ccc2c(/C=C(\F)C(=O)c3cc(OC)c(OC)c(OC)c3)c[nH]c2c1 [4a, Methyl(Z)-3–(2-fluoro-3-oxo-3–(3,4,5-trimethoxyphenyl)prop-1-en-1-yl)-1H-indole-6-carboxylate] | > 5000 | > 5000 | > 5000 | > 5000 | > 5000 | > 5000 | > 5000 | 207.3 to 209.1 |
| COc1cc(C(=O)/C(F)=C/c2c(-c3ccccc3)[nH]c3ccccc23)cc(OC)c1OC [4b, (Z)-2-fluoro-3–(2-phenyl-1H-indol-3-yl)-1–(3,4,5-trimethoxyphenyl)prop-2-en-1-one] |  | 202 ± 23 | 562 ± 20 | 883 ± 41 | 3635 ± 1 | 551 ± 22 | 685 ± 2 | 150.7 to 152.4 |
| COC(=O)c1ccc2[nH]cc(/C=C(\F)C(=O)c3cc(OC)c(OC)c(OC)c3)c2c1 [4d, Methyl(Z)-3–(2-fluoro-3-oxo-3–(3,4,5-trimethoxyphenyl)prop-1-en-1-yl)-1H-indole-5-carboxylate] | > 5000 | > 5000 | > 5000 | > 5000 | > 5000 | > 5000 | > 5000 | 80.4 to 81.8 |
| COc1cc(C(=O)/C(F)=C/c2c(C)[nH]c3ccccc23)cc(OC)c1OC [4e, (Z)-2-fluoro-3–(2-methyl-1H-indol-3-yl)-1–(3,4,5-trimethoxyphenyl)prop-2-en-1-one] |  | 72 ± 2 | 123 ± 11 | 1385 ± 1 | > 5000 | 551 ± 14 | 101 ± 31 | 204 to 206.4 |
| COC(=O)c1cccc2[nH]cc(/C=C(\F)C(=O)c3cc(OC)c(OC)c(OC)c3)c12 [4f, Methyl(Z)-3–(2-fluoro-3-oxo-3–(3,4,5-trimethoxyphenyl)prop-1-en-1-yl)-1H-indole-4-carboxylate] | > 5000 | > 5000 | > 5000 | > 5000 | > 5000 | > 5000 | > 5000 | 118 to 119 |
| COc1cc(C(=O)/C(F)=C/c2csc3ccccc23)cc(OC)c1OC [4g, (Z)-3-(benzo[b]thiophen-3-yl)-2-fluoro-1–(3,4,5-trimethoxyphenyl)prop-2-en-1-one] |  | 21 ± 7 | 456 ± 13 | 199 ± 6 | 505 ± 10 | 121 ± 12 | 72 ± 1 | 118 to 119 |
| COc1cc(C(=O)/C(F)=C/c2cc3ccccc3s2)cc(OC)c1OC [4h, (Z)-3-(benzo[b]thiophen-2-yl)-2-fluoro-1–(3,4,5-trimethoxyphenyl)prop-2-en-1-one] |  | 1897 ± 1 | 606 ± 26 | 5976 ± 4 | 2570 ± 159 | 2101 ± 3 | 2493 ± 2 | 122.2 to 123.6 |
| COc1cc(C(=O)/C(F)=C/c2sc3ccccc3c2C)cc(OC)c1OC [4i, (Z)-2-fluoro-3–(3-methylbenzo[b]thiophen-2-yl)-1–(3,4,5-trimethoxyphenyl)prop-2-en-1-one] |  | > 5000 | > 5000 | > 5000 | > 5000 | > 5000 | > 5000 | 140.5 to 143.4 |
| COc1cc(C(=O)/C(F)=C/c2nc3ccccc3[nH]2)cc(OC)c1OC [4j, (Z)-3-(1H-benzo[d]imidazol-2-yl)-2-fluoro-1–(3,4,5-trimethoxyphenyl)prop-2-en-1-one] |  | > 5000 | > 5000 | > 5000 | > 5000 | > 5000 | > 5000 | 178.9 to 180.9 |
| COc1cc(C(=O)/C(F)=C/c2cccc3c2OCO3)cc(OC)c1OC [4k, (Z)-3-(benzo[d][1,3]dioxol-4-yl)-2-fluoro-1–(3,4,5-trimethoxyphenyl)prop-2-en-1-one] |  | 166 ± 4 | 806 ± 24 | 3298 ± 7 | > 5000 | 441 ± 1 | 565 ± 12 | 148.1 to 149.1 |
